The text below walks through data of patent US9346803B2 (Vanderbilt University, priority 2011, dated 2016).

The subject of one experiment is COX-1. Briefly: Screen against COX-1. The class given is biochemical. Conditions: at concentrations greater than 100 μM.
The next experiment has as its system androgen receptor (AR). Briefly: HeLa-cell androgen receptor (AR) luciferase reporter gene assay driven by DHT. The class given is cell-based. Conditions: for AR agonism or antagonism (DHT stimulation of the AR): AR luciferase reporter gene assay; for androgen receptor antagonism: luciferase AR reporter gene assay driven by DHT, FIG. 11. The source says: Secondary screens involve one or more of: (a) a full-screen against all nine human recombinant AKR enzymes to ensure there are no-intended off-target effects; (b) a screen against COX-1 and COX-2 to reaffirm that compounds will not act as NSAIDs; and (c) a HeLa-cell androgen receptor (AR) reporter gene assay. The latter assay is used to determine whether lead compounds act as AR agonists or block 5α-DHT reporter gene activity by acting as androgen receptor antagonists.
In general terms: In a reporter assay the amount or activity of a reporter protein is the signal.

Experiment [1] deals with LNCaP cells stably transfected with AKR1C3. Briefly: Conversion of Δ4-androstene-3,17-dione to testosterone in LNCaP-AKR1C3 transfected cells. The class given is cell-based, human. Conditions: 30 μM. An excerpt: Tertiary screens involve one or more of (d) expanded reporter gene assays to determine whether compounds act as agonists or antagonists of other steroid hormone receptors; (e) inhibition of the conversion of Δ^4-androstene-3,17-dione to testosterone in androgen receptor dependent prostate cancer cells (including, but not limited to LNCaP; available from the American type Culture Collection (ATCC), Manassas, Va., United States of America) stably transfected with AKR1C3; and (f) inhibition of growth of castrate-resistant prostate cancer cells in a murine xenograft model.

The target in experiment [2] is homogeneous recombinant AKR1C3 (Homo sapiens (Human), UniProt P42330). Briefly: Inhibition of NADP+ dependent oxidation of S-tetralol catalyzed by AKR1C3. The class given is biochemical. Conditions: S-tetralol substrate at Km.
homogeneous recombinant AKR1C3, sequence (P42330 whole entry): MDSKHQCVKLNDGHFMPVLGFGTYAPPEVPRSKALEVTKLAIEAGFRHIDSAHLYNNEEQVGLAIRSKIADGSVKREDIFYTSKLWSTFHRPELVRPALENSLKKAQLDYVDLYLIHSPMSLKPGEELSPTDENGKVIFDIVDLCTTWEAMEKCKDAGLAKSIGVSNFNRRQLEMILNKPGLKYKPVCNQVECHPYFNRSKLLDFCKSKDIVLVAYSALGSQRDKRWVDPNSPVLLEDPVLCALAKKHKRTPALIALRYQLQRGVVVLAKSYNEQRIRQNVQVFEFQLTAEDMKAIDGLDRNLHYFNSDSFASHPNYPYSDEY
Another experiment has as its target AKR1C1 (Homo sapiens (Human), UniProt Q04828). Briefly: Inhibition of S-tetralol oxidation, AKR1C1. The class given is biochemical. Conditions: for IC50: S-tetralol substrate at Km. The source says: Inhibitors were initially screened for an ability to block the NADP+ dependent oxidation of the artificial substrate S-tetralol catalyzed by AKR1C3. S-tetralol was used since it is also a substrate of the highly related AKR1C1 and AKR1C2 enzymes.
Initially, the ratios of IC50 values for AKR1C2 versus AKR1C3 were compared. High ratios were indicative of high selectivity for AKR1C3.
The latter assay is used to determine whether lead compounds act as AR agonists or block 5α-DHT reporter gene activity by acting as androgen receptor antagonists.

The target in a further experiment is AKR1C2 (Homo sapiens (Human), UniProt P52895). The experiment is described as follows: Inhibition of S-tetralol oxidation, AKR1C2. As to conditions: for IC50: S-tetralol substrate at Km. The class given is biochemical.
AKR1C2, sequence (P52895 whole entry): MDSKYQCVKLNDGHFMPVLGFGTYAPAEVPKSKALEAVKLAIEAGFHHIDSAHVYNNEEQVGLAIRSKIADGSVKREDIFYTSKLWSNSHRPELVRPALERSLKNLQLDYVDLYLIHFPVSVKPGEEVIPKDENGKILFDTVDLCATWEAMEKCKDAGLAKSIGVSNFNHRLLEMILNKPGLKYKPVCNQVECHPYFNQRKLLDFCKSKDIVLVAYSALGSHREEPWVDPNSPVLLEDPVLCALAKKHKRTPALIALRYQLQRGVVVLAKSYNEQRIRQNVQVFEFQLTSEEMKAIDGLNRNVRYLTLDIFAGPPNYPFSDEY
The target in another experiment is AKR1C4 (Homo sapiens (Human), UniProt P17516). The experiment is described as follows: Inhibition of S-tetralol oxidation, AKR1C4. The class given is biochemical.
AKR1C4, sequence (P17516 whole entry): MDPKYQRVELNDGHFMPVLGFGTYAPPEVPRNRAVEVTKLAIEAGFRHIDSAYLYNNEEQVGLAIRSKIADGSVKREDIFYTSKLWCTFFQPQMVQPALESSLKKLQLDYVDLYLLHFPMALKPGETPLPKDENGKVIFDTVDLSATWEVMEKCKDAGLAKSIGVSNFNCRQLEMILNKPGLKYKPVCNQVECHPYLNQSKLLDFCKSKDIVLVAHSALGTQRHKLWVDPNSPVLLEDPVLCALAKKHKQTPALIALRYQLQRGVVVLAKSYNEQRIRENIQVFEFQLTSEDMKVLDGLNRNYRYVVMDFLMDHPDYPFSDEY
In another experiment the test system is VCaP cells. The experiment is described as follows: Δ4-androstene-3,17-dione driven expression of PSA in VCaP cells. The class given is cell-based, human.
Experiment [3] has as its system VCaP cells in a murine xenograft model. As to conditions: Cai et al., 2011; cited from earlier work.

“Also recorded” adds a separate entry of the source. Where only a bound is given, the exact number is not on record here.

AKR1C1, sequence (Q04828 whole entry): as the sequence (P52895 whole entry) above, with V38T, H47R, V54L, S87C, M151V, H170R, L172Q counted along it

Take `COc1ccc2c(c1)c(C)c(CCC(=O)O)n2C(=O)c1ccc(Cl)cc1` [Compound 2]: in the experiment on COX-1, the COX-1 inhibition entry was “did not inhibit COX-1”. In addition, in the experiment with androgen receptor (AR), the “AR agonism or antagonism (DHT stimulation of the AR)” value (from here on “AR agonism or antagonism”) is listed as “did not act as AR agonists or antagonists” and the androgen receptor antagonism entry is on record as “lack of androgen receptor antagonism”. The “conversion of Δ4-androstene-3,17-dione to testosterone” value in experiment [1] is “completely blocked”.

A word on the IC50: it is the concentration that inhibits the measured activity by half. As for `COc1ccc2c(c1)c(C)c(CCC(=O)NS(C)(=O)=O)n2C(=O)c1ccc(Cl)cc1` [drawing 38], the IC50 in experiment [2] turned out to be 0.34 µM; against AKR1C1, 100 µM; at AKR1C2, 93 µM.

As for `COc1ccc2c(c1)c(CC(=O)NS(=O)(=O)C(F)(F)F)c(C)n2C(=O)c1ccc(Cl)cc1`, the half-maximal inhibitory concentration (IC50) in experiment [2] was found to be 0.74 µM; against AKR1C2 it was 81 µM. Further, at AKR1C1 (number in parenthesis), the “fold selectivity for AKR1C3 over AKR1C1” value is over 135 fold. Further, the “fold selectivity for AKR1C3 over AKR1C2” value on AKR1C2 (number in parenthesis, ratio of IC50 values) was 108 fold. At AKR1C4 (number in parenthesis), the “fold selectivity for AKR1C3 over AKR1C4” value is over 135 fold.

`COc1ccc2c(c1)c(C)c(CCC(=O)NS(C)(=O)=O)n2C(=O)c1ccc(Cl)cc1` [Compound 3]: the COX-1 inhibition entry with COX-1 is given as “did not inhibit COX-1”. Besides, in the experiment with androgen receptor (AR), the “AR agonism or antagonism” value is “did not act as AR agonists or antagonists” and the androgen receptor antagonism entry is on record as “lack of androgen receptor antagonism”. Further, the “conversion of Δ4-androstene-3,17-dione to testosterone” value in experiment [1] was “completely blocked”.

Turning to `COc1ccc2c(c1)c(CC(=O)O)c(C)n2C(=O)c1ccc(C)cc1`, the half-maximal inhibitory concentration (IC50) in [2] came out at 0.16 µM.

Consider `CCc1c(CCC(=O)O)n(C(=O)c2ccc(Cl)cc2)c2ccc(OC)cc12`, for which the IC50 is 0.09 µM in [2], 30.7 µM against AKR1C1 and 49.6 µM against AKR1C2.

The compound `COc1ccc2c(c1)c1c(n2C(=O)c2ccc(Cl)cc2)CCC(C(=O)O)C1` (stereo not shown) showed an IC50 at AKR1C4 (S-tetralol substrate at Km) of 3.15 µM.

Consider `COc1ccc2c(c1)c(CC(=O)O)c(C)n2C(=O)c1ccc(CCl)cc1`, for which the IC50 in [2] amounted to 0.12 µM; on AKR1C1 it was 100 µM; at AKR1C2, 40.7 µM.

In the case of `COc1ccc2c(c1)c(C)c(CCC(=O)O)n2C(=O)c1ccc(Cl)cc1` [drawing 37], the IC50 at AKR1C1 is 17.7 µM; against AKR1C2, 14.5 µM.

On to `COc1ccc2c(c1)c(CC(=O)O)c(C)n2C(=O)c1ccc(Cl)cc1` [indomethacin], for which the “Δ4-androstene-3,17-dione driven expression of PSA” value in the experiment with VCaP cells is “blocked; also recorded: inhibition”. Besides, in [3], the “AR dependent gene transcription and tumor growth in xenograft” value was “block AR dependent gene transcription and cell growth and proliferation of the tumor”.

On to `COc1ccc2c(c1)c(CC(=O)NS(=O)(=O)C(F)(F)F)cn2C(=O)c1ccc(Cl)cc1` [Compound 1], for which, in the experiment on androgen receptor (AR), the “AR agonism or antagonism” value is “did not act as AR agonists or antagonists” and the androgen receptor antagonism entry is recorded as “lack of androgen receptor antagonism”.

On to `COc1ccc2c(c1)c(CC(=O)O)c(C)n2C(=O)c1ccc(C(F)(F)F)cc1`, for which inhibition on AKR1C2 was half-maximal at 35.7 µM (IC50).
